Where no end group is shown, it is not given here.

A short description of assay [1]: cumulative food intake, lean mice (Model A), BioDaQ system. The class given is in vivo. To be noted: lean male C57BL/6 mice, 1 mg/kg s.c., relative to vehicle, negative = reduction. The protocol:
(§1) Cumulative food intake after 6 h was determined for the PYY analogs in either lean (Model A) or diet-induced obese (DIO) (Model B) C57BL/6 mice in a BioDaQ system for continuous monitoring of food intake (Research Diets Inc., New Brunswick, N.J.). […] Mice were placed singly into the BioDaQ cages and acclimatized for a minimum of 6 days and were allowed ad libitum access to food and water. Approximately 1 hour prior to lights-out, animals were dosed subcutaneously with either vehicle (20 mM Acetate buffer, pH 4.9 or 20% DMSO in water) or analogs dissolved in vehicle (1 mg/kg) (8 animals per group). Once all animals have been dosed, feeder gates were opened providing ad-libitum access to food. Continuous food intake was monitored and collected for 15 hours. […] P-values <0.05 were considered to indicate a significant difference between treatment groups.

In assay [2] the target is T1, human Neuropeptide Y receptor type 2 (Homo sapiens, UniProt P49146).
T1 construct: expressed in transfected cells; host or cells: melanophores (own knowledge: Xenopus laevis melanophores transfected with the receptor, as in the cited protocol)
T1 sequence (P49146 1-381): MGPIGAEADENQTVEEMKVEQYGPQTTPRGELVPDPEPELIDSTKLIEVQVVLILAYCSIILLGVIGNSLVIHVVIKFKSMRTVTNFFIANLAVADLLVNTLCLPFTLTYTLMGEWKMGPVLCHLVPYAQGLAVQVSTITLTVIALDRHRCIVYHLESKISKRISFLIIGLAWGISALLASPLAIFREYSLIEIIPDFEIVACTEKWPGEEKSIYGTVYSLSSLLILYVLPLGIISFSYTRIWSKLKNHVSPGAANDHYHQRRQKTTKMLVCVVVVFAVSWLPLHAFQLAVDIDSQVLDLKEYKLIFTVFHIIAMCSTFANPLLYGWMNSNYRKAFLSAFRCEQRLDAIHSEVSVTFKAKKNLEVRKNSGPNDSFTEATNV
As to the kind of experiment: melanophore assay, potency at human Neuropeptide Y receptor type 2. The class given is cell-based. To be noted: Table 1, read-out: hNPY Y2 pEC50 (converted).

The nature of assay [3]: cumulative food intake, diet-induced obese mice (Model B), BioDaQ system. Type of assay: in vivo. The following applies: Table 1; DIO male C57BL/6 mice, 1 mg/kg s.c., cumulative food intake after 6 h, relative to vehicle; negative = reduction. On the procedure: as §1
Assay [4] is described as follows: chronic (41 days) efficacy study in DIO Long Evans rats: body weight, body composition, food intake. The class given is in vivo, Long Evans rat. To be noted: DIO LE rats. On the procedure: Rats were 17 weeks old at the start of the study. The rats were housed 1 per cage and given ad libitum access to TD.95217 chow and water, maintained on a 12 h light/dark cycle from 5:00 AM to 5:00 PM at 21° C. and 50% relative humidity and allowed to acclimate for at least 7 days prior to baseline measurements. Baseline fat mass and non-fat mass measurements were taken 3 days before the start of peptide infusion and on day 40 of treatment using a QMR instrument (Echo Medical Systems, Houston, Tex.). […] Each rat was implanted with two osmotic pumps subcutaneously in the scapula region containing vehicle or peptide according to their treatment group. Body weight and food intake were measured twice per week beginning three days before the 41-day treatment period. On day 41 of treatment, whole blood was collected by cardiac stick under isoflurane anesthesia. Plasma and serum were then prepared from the whole blood for serum chemistry analysis. All the data are presented as mean±SEM. The data were analyzed in either Prism (GraphPad Software, Inc., La Jolla, Calif.) or Excel using a Student's T-test to compare each group to the appropriate control group. P-values <0.05 were considered to indicate a significant difference between treatment groups.

Assay [5] is described as follows: chronic (26 days) efficacy study in diabetic ZDF rats: glucose and HbA1c. The class given is in vivo, Zucker Diabetic Fatty (ZDF) rat. The text has this: Male ZDF rats were 12 weeks old at the start of the study (Charles River, Inc., Boston, Mass.). […] Baseline fat mass and non-fat mass measurements were taken 3 days before the start of peptide infusion and on day 26 of treatment using a QMR instrument (Echo Medical Systems, Houston, Tex.). […] P-values <0.05 were considered to indicate a significant difference between treatment groups.

The mark [6] stands for this setting: s.c. infusion, used as study dose.

Turning to `CC(C)C[C@H](NC(=O)[C@H](CC(=O)O)NC(=O)[C@H](C)NC(=O)[C@H](Cc1ccc(O)cc1)NC(=O)[C@H](Cc1ccc(O)cc1)NC(=O)[C@H](CCCNC(=N)N)NC(=O)[C@H](CC(N)=O)NC(=O)[C@H](Cc1c[nH]c2ccccc12)NC(=O)[C@H](CCC(=O)O)NC(=O)[C@H](CCC(=O)O)NC(=O)[C@@H]1CCCN1C(=O)[C@H](CO)NC(=O)[C@H](C)NC(=O)[C@H](CC(=O)O)NC(=O)[C@H](CCCCN)NC(=O)CNC(=O)[C@@H]1CCCN1C(=O)[C@H](C)NC(=O)[C@H](CCC(=O)O)NC(=O)[C@@H]1CCCN1C(=O)[C@H](CCCCN)NC(=O)[C@@H]1CCCN1)C(=O)N[C@@H](CCCNC(=N)N)C(=O)N[C@@H](CCCCN)C(=O)N[C@@H](Cc1ccc(O)cc1)C(=O)N[C@@H](CC(C)C)C(=O)N[C@@H](CC(N)=O)C(=O)N[C@@H](Cc1c[nH]c2ccccc12)C(=O)N[C@@H](CC(C)C)C(=O)N[C@H](C(=O)N[C@@H](CCCNC(=N)N)C(=O)N[C@@H](CCC(N)=O)C(=O)N[C@@H](CCCNC(=N)N)C(=O)N[C@@H](Cc1ccc(O)cc1)C(N)=O)[C@@H](C)O` [Example 4], the “% reduction in food intake, model A” value in assay [1] (Table 1, cumulative food intake after 6 h) is reported as −83%. For the same molecule, in assay [2], the EC50 is 0.02 nM.

As to `CC(C)C[C@H](NC(=O)[C@H](CO)NC(=O)[C@H](C)NC(=O)[C@H](Cc1ccc(O)cc1)NC(=O)[C@H](Cc1ccc(O)cc1)NC(=O)[C@H](CCCNC(=N)N)NC(=O)[C@H](CC(N)=O)NC(=O)[C@H](Cc1c[nH]c2ccccc12)NC(=O)[C@H](CCC(=O)O)NC(=O)[C@H](CCC(=O)O)NC(=O)[C@@H]1CCCN1C(=O)[C@H](CO)NC(=O)[C@H](C)NC(=O)[C@H](CC(=O)O)NC(=O)[C@H](CCCCN)NC(=O)CNC(=O)[C@@H]1CCCN1C(=O)[C@H](Cc1c[nH]cn1)NC(=O)[C@H](CCC(=O)O)NC(=O)[C@@H]1CCCN1C(=O)[C@H](CCCCN)NC(=O)[C@@H]1CCCN1)C(=O)N[C@@H](CCCNC(=N)N)C(=O)N[C@@H](CCCCN)C(=O)N[C@@H](Cc1ccc(O)cc1)C(=O)N[C@@H](CC(C)C)C(=O)N[C@@H](CC(N)=O)C(=O)N[C@@H](Cc1c[nH]c2ccccc12)C(=O)N[C@H](C(=O)N[C@H](C(=O)N[C@@H](CCCNC(=N)N)C(=O)N[C@@H](CCC(N)=O)C(=O)N[C@@H](CCCNC(=N)N)C(=O)N[C@@H](Cc1ccc(O)cc1)C(N)=O)[C@@H](C)O)C(C)C` [Example 25], the “% reduction in food intake, model B” value in assay [3] is on record as −68%.

Consider “PKPEAPLSKQLEEEAVRYYASLRHYLNLVTRQRY-NH2 [Peptide 21]”, for which the “% reduction in food intake, model A” value in assay [1] (Table 2, 6 h time point) is −2%.

For the molecule “PKPVAPGCDASPAELNRQYSDLRNYWNLVTRQRY-NH2 [Peptide 15]”, the “% reduction in food intake, model A” value in assay [1] (Table 2, 6 h time point) is −17%.

For PYY(3-36)NH2, the “weight loss vs. vehicle” value in assay [4] (40 days, s.c. osmotic pumps, ED50 doses) is −1.3%. Also, the “inhibition of cumulative food intake” value in assay [4] (chronic infusion, vs. vehicle control) is recorded as −0.7%. Moreover, the ΔΔGlucose in assay [5] (26 days, change from baseline and vehicle control, ED20 doses) was −33.1 ± 17^ mg/dL.

On to exendin-4, for which the “ED50 for weight loss” value in assay [4] (setting [6]) turned out to be 0.15 mg/kg/day. The “ED20 for HbA1c lowering” value in assay [5] (setting [6]) is on record as 0.0055 mg/kg/day.

The values are drawn from patent publication US9441023B2, “Peptide YY analogs” (GlaxoSmithKline Intellectual Property Development Limited, priority 2013, dated 2016).
